Series [1] deals with tumor growth. The settings on record: cited from earlier work.
The test system of series [2] is experimental adenocarcinoma. As to the method:
Eight inbred female Wistar rats were during general anesthesia inoculated in the central liver lobe with 0.1 ml of 1.0 million viable tumor cells of an experimental adenocarcinoma. On day 5 the animals were relaparotomized during general anesthesia, the body weight was recorded and the size of the solitary liver tumor was measured with vernier calipers.
The animals were randomly allocated to two groups. Group 1 received intravenous injections of ALIMTA (pemetrexed) 0.01 mg/kg and group 2 received 0.1 mg/kg of ALIMTA. Both groups received 15 mg/kg of R-5,10-CH2FH4 immediately following the injections of ALIMTA. Therapy was administered through intravenous injections via the tail vein on days 6-8 and days 11-12. On day 13 all animals were sacrificed by an overdose of anesthesia.
The body weights were recorded and the size of the liver tumors was measured. The wet weights of the excised liver tumor and spleen were recorded.

Series [3] relates to TS. The series can be described thus: TS expression levels after Tomudex intravenous bolus injection in colorectal cancer patients. The settings on record: multi-targeting antifolate only. In kind it is in vivo. As for the experimental part:
In this experiment, the effect of a multi-targeting antifolate, i.e. Tomudex (raltitrexed), was shown.
Nine colorectal cancer patients were included in the study, and the expression levels were measured in actin, which is a protein serving as an important structural molecule for the cytoskeletons of many eukaryotic cells.

A short description of series [4]: Tissue concentration of methylene-THF in tumor biopsy after i.v. bolus injection of folates. Type of series: in vivo, patients. The settings on record: tumor biopsy at 20 minutes after i.v. bolus injection; compared with leucovorin. As for the experimental part: The level of increase of tissue concentration of methylene-THF after administration of leucovorin and methylene-THF, respectively, has been compared. Patients operated upon due to liver metastases were given a dose of folates. Biopses were taken from the tumor before i.v. bolus injection of leucovorin on methylenetetrahydrofolate. At 20 minutes a new tumor biopsy was taken and the concentration of MTHF was assayed.

Where two headings read alike, the source gives them in different places.

As for `O=c1[nH]cc(F)c(=O)[nH]1` [5-FU, 5-fluorouracil], the tumor growth suppression result in series [1] (5-FU administered to folate depleted animals 1 hr after folinic acid) was “approximately 80%”; in series [1] (control mice), “approximately 50%”. For the same compound, in series [1] (folinic acid administered 12 hr before 5-FU), the “effect on tumor growth” value is reported as “tumor growth stimulation”.
As for `Nc1nc2[nH]cc(CCc3ccc(C(=O)N[C@@H](CCC(=O)O)C(=O)O)cc3)c2c(=O)[nH]1` [ALIMTA, pemetrexed], the extrahepatic tumor growth result in series [2] (ALIMTA 0.01 mg/kg i.v. + 15 mg/kg R-5,10-CH2FH4 (group 1), day 13) was “extrahepatic tumor growth in the abdominal cavity as metastases to the lungs”. Further, the extrahepatic metastases result in series [2] (highest Alimta dose (0.1 mg/kg i.v.) + 15 mg/kg R-5,10-CH2FH4 (group 2)) is given as “no extrahepatic metastases were recorded”.
Consider `Cc1nc2ccc(CN(C)c3ccc(C(=O)N[C@@H](CCC(=O)O)C(=O)O)s3)cc2c(=O)[nH]1` [Tomudex, raltitrexed], for which the clinical toxicity result in series [3] (clinical findings) is given as “severe toxic effects from the bowel made it impossible to continue the treatment”. For the same compound, the “effect on normal mucosa versus tumor (TS expression levels)” value in series [3] (intravenous bolus injection) is “the normal mucosa is actually more adversely affected than the tumor”.
Turning to `Nc1nc2c(c(=O)[nH]1)N(C=O)C(CNc1ccc(C(=O)N[C@@H](CCC(=O)O)C(=O)O)cc1)CN2` (stereo partly drawn) [folinic acid], in series [1] (folinic acid administered without 5-FU), the “effect on tumor growth” value is given as “pronounced growth stimulation”.
With `Nc1nc2c(c(=O)[nH]1)N1CN(c3ccc(C(=O)N[C@@H](CCC(=O)O)C(=O)O)cc3)CC1CN2` (stereo partly drawn) [methylene-THF, 5,10-methylene-tetrahydrofolate], the “tissue concentration of methylene-THF in tumor” value in series [4] was “greater tissue concentration of methylene-THF than leucovorin”.

The record behind these values is patent US9585888B2, “Reduction of toxicity of multi-targeting antifolates” (Isofol Medical AB, priority 2003, dated 2017).
